The values that follow come from patent US20260097049A1, “C[…] AND METHODS OF USE FOR TREATMENT AND PREVENTION OF CANCER” (BlackStone Therapeutics, LLC, priority 2022, published 2026).

Each structure is given as a SMILES string. Like-named read-outs stand apart in the source and are kept apart here.

Type in all cases: cell-based
Data set [1] deals with AsPC-1. The data set can be described thus: CellTiterGlo cell viability, AsPC-1 cells. To be noted: Homo sapiens, ASPC1, 72 h. On the procedure:
(§1) The IC50 values for (R)-H4CBD, (S)-H4CBD, H4CBDV racemic mixture, and bortezomib were determined. Compound treatment of cells started one day after seeding with a final DMSO concentration of 0.1% and was performed by nanodrop-dispensing using a Tecan Dispenser. 0.1% DMSO (solvent) and Staurosporine (1,0E-05M) served as high control (100% viability) and low control (0% viability), respectively. For the assays, cells were seeded in white cell culture-treated flat and clear bottom multiwell plates and incubated at 37° C. overnight before compounds were added. After incubation for 72 h at 37° C. at 5% or 10% CO2 dependent on the medium, cell plates were equilibrated to room temperature for one hour, CellTiterGlo reagent (Promega) was added and luminescence was measured approximately an hour later using a luminometer.
(§2) Raw data were converted into percent cell viability relative to the high and low control, which were set to 100% and 0%, respectively. IC50 calculation was performed using GraphPad Prism software with a variable slope sigmoidal response fitting model using 0% viability as bottom constraint and 100% viability as top constraint. IC50 results in PANC-1, MIA-PaCa2, and AsPC-1 cells for (R)-H4CBD, (S)-H4CBD, H4CBDV racemic mixture, and bortezomib are shown in FIGS. 10-12 and Table 2
(In general: In ATP-based viability assays light output follows the ATP content of the culture.)

A further data set deals with PANC-1. Nature of the data set: CellTiterGlo cell viability, PANC-1 cells. As to conditions: Homo sapiens, 72 h. The procedure:
as §1, §2

In the next data set the test system is MiaPaCA-2. Nature of the data set: CellTiterGlo cell viability, MiaPaCA-2 cells. To be noted: Homo sapiens, MIA PaCa-2, 72 h. On the procedure:
as §1, §2

For the next data set, the system named is MIA-PaCa2. The data set can be described thus: IC50 in cell lines (Table 4), MIA-PaCa2. To be noted: Homo sapiens, MIA PaCa-2. On the procedure: (§3) Various compounds, including (R)-H4CBD and (S)-H4CBD, and H4CBDV racemic mixture, were tested for cell killing against various cancer cell lines, including PANC-1, HPAF-II, AsPC-1, and MIA-PaCa2.
(§4) Table 4 summarizes the measured IC50 for specific compounds in the indicated cell types.

The subject of data set [2] is AsPC-1. The data set can be described thus: IC50 in cell lines (Table 4), AsPC-1. As to conditions: Homo sapiens, ASPC1. The procedure:
as §3, §4

Another data set concerns PANC1. Nature of the data set: IC50 in cell lines (Table 4), PANC1. To be noted: Homo sapiens, PANC-1. The procedure: as §3, §4
For a further data set, the system named is HPAFII. The data set can be described thus: IC50 in cell lines (Table 4), HPAFII. To be noted: Homo sapiens, HPAF-II. On the procedure: as §3, §4
For data set [3], the system named is A549 Lung Carcinoma Epithelial Cells (CCL-185 from ATCC). The data set can be described thus: Percent viability of lung carcinoma cells. As to conditions: for cell viability, comparison in words (figure legends): FIGS. 39, 42, 43; for viability at 1.56 µM / viability at 3.12 µM / viability at 6.25 µM / viability at 12.5 µM / viability at 25 µM / viability at 50 µM: Homo sapiens. The procedure:
GR-X1=H4CBDV, GR-X2=(R)-H4CBD, GR-X3=(S)-H4CBD, GR-X4=HHC.
The IC50 of the hydrogenated cannabivarin, hexahydrocannabidivarin (H4CBDV), (R)-H4CBD, (S)-H4CBD, HHC racemic mixture, and gemcitabine, paclitaxel, and 5-fluorouracil were determined in lung carcinoma cells (A549 Lung Carcinoma Epithelial Cells (CCL-185 from ATCC)) as shown in FIGS. 39-43 and Table 3.

The target in another data set is hERG (Homo sapiens, UniProt Q12809). The data set can be described thus: hERG assay. On the procedure:
(§5) At 50 μM, 74.8% of human fibroblasts died and 8% of hepatocytes.
Background: Block of hERG is tested as a sign of cardiac risk.

The nature of another data set: Ames test. On the technique in general: In the Ames test, an excess of revertant colonies over the control signals mutagenicity.
Another data set has as its system human fibroblasts. The data set can be described thus: Cytotoxicity in human fibroblasts. On the procedure: as §5
The subject of a further data set is hepatocytes. Nature of the data set: Cytotoxicity in hepatocytes. As to conditions: at 50 μM. On the procedure:
as §5

Where [4] appears, read: A549, agent concentration 1.56 uM, read-out: Percent viability of cells, Mean (%).
The mark [5] stands for this setting: A549, agent concentration 3.12 uM, read-out: Percent viability of cells, Mean (%).
Where [6] appears, read: A549, agent concentration 6.25 uM, read-out: Percent viability of cells, Mean (%).
The mark [7] stands for this setting: A549, agent concentration 12.5 uM, read-out: Percent viability of cells, Mean (%).
[8] abbreviates: A549, agent concentration 25 uM, read-out: Percent viability of cells, Mean (%).
The mark [9] stands for this setting: A549, agent concentration 50 uM, read-out: Percent viability of cells, Mean (%).
[10] abbreviates: A549, read-out: Percent viability of cells, Mean (%).

Sequence of hERG (Q12809 whole entry): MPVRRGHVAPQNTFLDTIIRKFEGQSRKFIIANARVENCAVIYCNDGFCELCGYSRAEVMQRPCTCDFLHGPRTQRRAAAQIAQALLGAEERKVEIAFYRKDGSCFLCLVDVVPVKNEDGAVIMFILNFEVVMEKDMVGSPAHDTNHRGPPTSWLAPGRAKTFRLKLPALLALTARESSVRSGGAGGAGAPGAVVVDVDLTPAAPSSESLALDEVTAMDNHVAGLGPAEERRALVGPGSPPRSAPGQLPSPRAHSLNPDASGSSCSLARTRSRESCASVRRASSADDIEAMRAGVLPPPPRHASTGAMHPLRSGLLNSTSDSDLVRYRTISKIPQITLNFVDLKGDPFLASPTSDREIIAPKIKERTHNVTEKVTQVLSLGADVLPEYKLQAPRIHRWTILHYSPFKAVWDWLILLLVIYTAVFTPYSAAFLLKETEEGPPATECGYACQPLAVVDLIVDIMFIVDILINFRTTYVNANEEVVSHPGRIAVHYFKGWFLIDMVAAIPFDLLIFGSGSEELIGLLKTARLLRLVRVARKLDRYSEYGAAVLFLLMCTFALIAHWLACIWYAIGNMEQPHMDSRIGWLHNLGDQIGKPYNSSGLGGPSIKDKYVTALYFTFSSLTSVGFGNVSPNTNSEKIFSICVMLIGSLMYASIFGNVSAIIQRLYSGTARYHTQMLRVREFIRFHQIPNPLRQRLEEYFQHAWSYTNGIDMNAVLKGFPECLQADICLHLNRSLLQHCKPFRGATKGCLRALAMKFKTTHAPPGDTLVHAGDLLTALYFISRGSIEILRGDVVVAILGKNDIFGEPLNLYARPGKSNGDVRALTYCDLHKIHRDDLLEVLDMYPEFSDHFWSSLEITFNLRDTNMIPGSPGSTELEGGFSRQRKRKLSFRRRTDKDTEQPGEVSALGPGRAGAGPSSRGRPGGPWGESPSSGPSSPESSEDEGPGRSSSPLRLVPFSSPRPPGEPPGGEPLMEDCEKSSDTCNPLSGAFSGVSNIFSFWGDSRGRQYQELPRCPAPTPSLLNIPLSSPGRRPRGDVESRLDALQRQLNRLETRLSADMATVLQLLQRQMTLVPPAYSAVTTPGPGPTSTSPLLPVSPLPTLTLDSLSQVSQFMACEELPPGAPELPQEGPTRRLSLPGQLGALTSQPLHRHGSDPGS

With `CCCCCc1cc(O)c(C2C[C@@H](C)CCC2C(C)C)c(O)c1` (stereo partly drawn) [CCL-112, (S)-H4CBD], the results for the IC50 in the data set on AsPC-1 [1], with PANC-1 and in the data set on MiaPaCA-2 were 6.17 µM, 8.02 µM and 4.77 µM, respectively.

As for `CCCCCc1cc(O)c2c(c1)OC(C)(C)C1CC[C@@H](C)CC21` (stereo partly drawn) [CCL-101, 9R-Hexahydrocannabinol], the IC50 in the data set on MIA-PaCa2 stood at 0.0127 mM; in the data set with AsPC-1 [2], 0.0166 mM; in the data set with PANC1 it was 0.00908 mM; in the data set on HPAFII it was 0.00884 mM.

Take `CC(=O)O[C@H]1C(=O)[C@@]2(C)[C@H]([C@H](OC(=O)c3ccccc3)[C@]3(O)C[C@H](OC(=O)[C@H](O)[C@@H](NC(=O)c4ccccc4)c4ccccc4)C(C)=C1C3(C)C)[C@]1(OC(C)=O)CO[C@@H]1C[C@@H]2O` [paclitaxel, reference compound]: the “cell viability, comparison in words (figure legends)” value (shortened to “cell viability, comparison in words”) in [3] is recorded as “higher cytotoxicity at a lower concentration than 5-flurouracil”.

Turning to `CCCCCc1cc(O)c(C2C[C@H](C)CCC2C(C)C)c(O)c1` (stereo partly drawn) [CCL-111, (R)-H4CBD], the IC50 in the data set with AsPC-1 [1] worked out at 4.85 µM; in the data set on PANC-1, 5.29 µM; with MiaPaCA-2, 3.24 µM.

Regarding `CCCCCCCc1cc(O)c(C2CC(C)CCC2C(C)C)c(O)c1` (racemic) [CCL-105, H4CBDP], the values for the IC50 with MIA-PaCa2 and in the data set with PANC1 were 0.0061 mM and 0.00255 mM, respectively.

As for `CC(C)C[C@H](NC(=O)[C@H](Cc1ccccc1)NC(=O)c1cnccn1)B(O)O` [Bortezomib, reference compound], the 50% inhibitory concentration (IC50) with AsPC-1 [1] was 0.0334 µM; in the data set with PANC-1, 0.0134 µM; with MiaPaCA-2, 0.0149 µM.

On to `CCCc1cc(O)c2c(c1)OC(C)(C)C1CCC(C)CC21` (racemic) [CCL-103, HHCV], for which the values for the IC50 in the data set with MIA-PaCa2 and in the data set on PANC1 were 0.0197 mM and 0.00507 mM, respectively.

`CCCCCc1cc(O)c(C2C[C@@H](C)CCC2C(C)C)c(O)c1` (some centres unmarked) [S- H4CBDV]: the viability at 1.56 µM in data set [3] (setting [4]) was 94.2%. Moreover, in data set [3] (setting [5]), the viability at 3.12 µM was found to be 99.6%. Also, the viability at 6.25 µM in data set [3] (setting [6]) is 94.1%. The viability at 12.5 µM in [3] (setting [7]) is 81.3%. In addition, the viability at 25 µM in [3] (setting [8]) was 13.8%. Further, the viability at 50 µM in [3] (setting [9]) is 1.53%.

As to `CCCCCc1cc(O)c2c(c1)OC(C)(C)C1CC[C@H](C)CC21` (stereo partly drawn) [CCL-102, 9S-Hexahydrocannabinol], the concentration for half-maximal inhibition (IC50) in the data set with MIA-PaCa2 turned out to be 0.0272 mM; with AsPC-1 [2] it was 0.0115 mM; in the data set on PANC1, 0.0172 mM; with HPAFII, 0.00702 mM.

For `O=c1[nH]cc(F)c(=O)[nH]1` [5-fluorouracil, reference compound], the “cell viability, comparison in words” value in data set [3] is “presented the best cell viability when compared to the other two drugs, gemcitabine and paclitaxel”.

For the molecule `CCCCCc1cc(O)c2c(c1)OC(C)(C)C1CCC(C)CC21` (racemic) [CCL-113, hexahydrocannabinol], on hERG, the “cytotoxicity in hERG assay” value is given as “did not show cytotoxicity”. Moreover, the “cell viability, comparison in words” value in data set [3] is on record as “the only compound that presented higher cell viability from 25 μM”. Also, in [3] (setting [10]), the viability at 1.56 µM came to 92.5%, the viability at 3.12 µM amounted to 92.9%, the viability at 6.25 µM worked out at 95.6% and the viability at 12.5 µM turned out to be 96.1%. In data set [3] (setting [10]), the viability at 25 µM was found to be 81.6% and the viability at 50 µM worked out at 22.1%. Moreover, the “cytotoxicity in Ames test” value in “Ames test” is given as “did not show cytotoxicity”. Moreover, it took 14.4 µM to reach half-maximal inhibition in the data set on human fibroblasts (Homo sapiens, Fibroblast) (IC50). Moreover, the human fibroblasts died in the data set on human fibroblasts (at 50 μM) amounted to 74.8%. Moreover, the hepatocytes died with hepatocytes came to 8%.

As to `CCCCCc1cc(O)c(C2C[C@H](C)CCC2C(C)C)c(O)c1` (some centres unmarked) [R- H4CBDV], the viability at 1.56 µM in [3] (setting [4]) was found to be 92.3%. Besides, the viability at 3.12 µM in [3] (setting [5]) was found to be 86.7%. For the same molecule, in [3] (setting [6]), the viability at 6.25 µM was 86%. Further, the viability at 12.5 µM in [3] (setting [7]) was determined as 45%. Besides, in [3] (setting [8]), the viability at 25 µM turned out to be 14%. Further, in data set [3] (setting [9]), the viability at 50 µM came to 4.18%.

In general, IC50 refers to the concentration that inhibits the measured activity by half. Low values mean inhibition by little substance, high ones a need for much substance. By viability is commonly meant the share of living cells, or the viability signal relative to a control.
